Values of other authors in article PMC11982978, “Cancer hotspot mutations rewire ERK2 specificity by selective exclusion of docking interactions” (The Journal of Biological Chemistry, 2025).

Tested on: WT ERK2
Conditions: selective conditions (-His); hits Z > 3; average of three screens; cited from earlier work
Source text: Supplement mmc2.xlsx, sheet "WT Hits" | column: Z-score

Row | Sequence | Z-score (ES) of hit sequences, WT ERK2 Y2H screen
1 | PDRKVKPAPLEIKP [GAB1, D-site 14-mer in ELK1 Y2H prey] | 10.25
2 | RKRSKPKLKLKIIN [KMT2C, D-site 14-mer in ELK1 Y2H prey] | 17.15
3 | IPKNRIHHKLVLPS [CENPC, D-site 14-mer in ELK1 Y2H prey] | 3.05
4 | KGKSKRKKDLRISC [MAP2K3, D-site 14-mer in ELK1 Y2H prey] | 10.02
5 | SGDPRKPRQLTVGD [ZMYND15, D-site 14-mer in ELK1 Y2H prey] | 5.02
6 | LRKKPDLSPLKLTI [TTC41P, D-site 14-mer in ELK1 Y2H prey] | 5.81
7 | PLPRRTRRPLLLPR [HPS4, D-site 14-mer in ELK1 Y2H prey] | 7.88
8 | RRRGTRPPLLALLA [ROR1, D-site 14-mer in ELK1 Y2H prey] | 4.89
9 | PKGKNRPSSLNLDP [ARHGAP31, D-site 14-mer in ELK1 Y2H prey] | 3.62
10 | TYRPKRPTTLNLFP [MAPK8IP1, D-site 14-mer in ELK1 Y2H prey] | 3.22
11 | TRQKHAKKHLGFFR [UTP23, D-site 14-mer in ELK1 Y2H prey] | 3.13
12 | SKGKKRNPGLKIPK [MAP2K6, D-site 14-mer in ELK1 Y2H prey] | 8.58
13 | EEEFRKLTNVRIMK [PTPRE, D-site 14-mer in ELK1 Y2H prey] | 8.60
14 | CKLKMKPRPIAILQ [TTN, D-site 14-mer in ELK1 Y2H prey] | 7.96
